Results on nine compounds are retold here after paper PMC11768359, “2-Aminothiophene Derivatives—New Drug Candidates Against Leishmaniasis: Drug Design, Synthesis, Pharmacomodulation, and Antileishmanial Activity” (Pharmaceuticals, 2025).

Series [1] deals with RAW 264.7 macrophages. Description: Cytotoxicity in macrophages (MTT). The series is classed as cell-based. As to conditions: 48 h. The protocol: (§1) The in vitro tests utilized Leishmania amazonensis parasites (IFLA/BR/67/PH8). These leishmania cell lines were obtained from Oswaldo Cruz Foundation (FIOCRUZ)/Brazil. The promastigote forms were cultivated in Schneider’s insect medium at 26 °C in a biological oxygen demand (BOD) incubator. Schneider’s insect medium was supplemented with 20% fetal bovine serum (FBS) and 1% penicillin (100 U/mL) and streptomycin (µg/mL) (complete Schneider). Next, we differentiated them from promastigote forms by changing the conditions to Schneider’s insect medium supplemented with 5% FBS, pH 4.6, and a temperature of 32 °C to obtain axenic amastigote forms of L. amazonensis. Meanwhile, RAW 264.7 macrophages were cultured in […] cell culture flasks using DMEM medium supplemented with 10% FBS, 1% penicillin 100 U/mL, and 100 μg/mL streptomycin (complete DMEM) and incubated at 37 °C and 5% CO2.
(§2) First, 100 μL DMEM medium complete with 1 × 10^6 macrophages (RAW 264.7) was added to each well of a 96-well plate. RAW 264.7 macrophages were obtain from ATCC: code TIB-71^TM. The plate was placed in an incubator (37 °C, 5% CO2) (Sanyo, model COM-15A, Sanyo Electric Co., Osaka, Japan) for 4 h to promote cell adhesion. After this period, two washes were conducted with previously heated DMEM medium (37 °C) to remove non-adhered cells. 2-amino-thiophene and 2-amino-selenophene derivatives were added to wells at serial concentrations of 400 to 25 µM and then incubated for 48 h. Next, 10 μL of MTT at a […] of 5 mg/mL were added to each well and incubated for 4 h. The plate was then shaken for 30 min and read at the test and reference wavelengths of 550 and 620 nm, respectively, in a plate reader. DMEM medium supplemented with 0.5% DMSO was used as a negative control and considered as 100% macrophage viability. The selectivity index for each treatment was calculated as the ratio between the concentration of cytotoxicity of RAW 264.7 macrophages (CC50) and the 50% inhibitory concentration (IC50) or effective concentration (EC50), as measured for the different evolutionary forms of L. amazonensis.

In series [2] the test system is promastigotes of L. amazonensis. Description: Growth inhibition of promastigote forms of L. amazonensis (MTT). The series is classed as cell-based, Leishmania amazonensis. As to conditions: 72 h, 26 °C. The protocol:
as §1
(§3) Parasite growth inhibition was evaluated using the methodology described by Rodrigues et al. (2015). Cultures of logarithmically growing promastigote and axenic amastigote forms (1 × 10^6 parasites/mL) were incubated in 96-well plates containing 100 µL of supplemented Schneider’s medium in triplicate. Serial concentrations of 2-amino-thiophene and 2-amino-selenophene derivatives (10.00–0.156 μM) and the reference drugs meglumine antimoniate (500–40,000 μg/mL), amphoterecinB (0.1–2 μM), and pentamidine (3.12–100 µM) were added. BNP was used as a negative control. The cultures were incubated in a biological oxygen demand oven (model Eletrolab EL202, São Paulo, Brazil) at 26 °C for promastigotes and 32 °C for axenic amastigotes for 72 h. Then, 10 μL of MTT (5 mg/mL) was added to each well to colorimetrically evaluate growth inhibition. The plate was subsequently incubated for a further 4 h, followed by adding 50 μL of 10% sodium dodecyl sulfate solution for […] before the optical density of the culture was read on a microplate spectrophotometer reader. The reading was taken at the test and reference wavelengths of 540 and 620 nm using a microplate spectrophotometer. The negative control consisted of 0.2% […] with BNP, considered to be 100% viable.

Series [3] has the same test system. Particulars: cited from earlier work.
Series [4] concerns RAW 264.7 macrophages. As to conditions: previously published; cited from earlier work.
The subject of series [5] is axenic amastigotes of L. amazonensis. As to conditions: cited from earlier work; for pEC50: read-out: EC50 against amastigotes.
Series [6] can be described thus: Cytotoxicity in macrophages (MTT). The series is classed as cell-based. As to conditions: mouse, RAW 264.7 macrophages. As for the experimental part:
as §1, §2

Series [7] deals with axenic amastigotes of L. amazonensis. As to the kind of experiment: Growth inhibition of axenic amastigote forms of L. amazonensis (MTT). As to conditions: Leishmania amazonensis, 72 h, 32 °C. The series is classed as cell-based, Leishmania amazonensis. As for the experimental part: as §1, §3
The test system of series [8] is L. amazonensis. Particulars: Swiss mice, oral, 50 and 200 mg/kg, 7 weeks; versus meglumine antimoniate i.p. 100 mg/kg; cited from earlier work.
Setting [9] is: L. amazonensis promastigotes, previously published, read-out: IC50 Promastigotes.
Where [10] appears, read: L. amazonensis axenic amastigotes, previously published, read-out: IC50 Amastigotes.
The mark [11] stands for this setting: L. amazonensis amastigotes, previously published, read-out: IC50 Amastigotes.

pEC50, pIC50: −log10 of the molar value. Several values for one entry are separate records, joined by “and”; a condition that tells them apart may be missing. Equal values may be shown once. Read-outs that look alike come from different tables or passages of the source.

What is called pIC50 is the IC50 on a negative log10 scale, so that one unit is a factor of ten. `C[C@@H]1[C@H](O)[C@@H](C)/C=C/C=C/C=C/C=C/C=C/C=C/C=C/[C@H](O[C@@H]2O[C@H](C)[C@@H](O)[C@H](N)[C@@H]2O)C[C@@H]2O[C@](O)(C[C@@H](O)C[C@@H](O)[C@H](O)CC[C@@H](O)C[C@@H](O)CC(=O)O[C@H]1C)C[C@H](O)[C@H]2C(=O)O` [Amphotericin B, reference compound]: the CC50 in series [1] is 0.18 µM and 0.3 µM; in series [1] (listed as Anfotericina B), 0.38 µM. In addition, the pIC50 in series [2] was 6.77 and 6.52; in series [2] (listed as Anfotericina B) it was 6.44.
For `N#Cc1c(N)sc2c1CCCCC2` [Compound 7CN], the pIC50 in series [3] (setting [9]) is 5.49 and 5.50; in series [5] (setting [10]) it was 5.57 and 5.55. Also, the CC50 in series [4] is 99.5 µM.
For `N#Cc1c(/N=C/c2c[nH]c3ccc(Br)cc23)sc2c1CCCCCC2` [Compound 8CN83], the pIC50 in series [3] (setting [9]) was 5.33 and 5.32; in series [5] (setting [10]), 5.42. Besides, in series [4], the CC50 was over 100 µM.
With `N#Cc1c(N)sc2c1CCCCCC2` [Compound 8CN], the pIC50 in series [3] (setting [9]) was 5.92. For the same compound, the CC50 in series [4] is 43.9 µM.
In series [6], `CC(C)(C)OC(=O)N1CCc2c(sc(N)c2C(N)=O)C1` [Compound 19] had a CC50 at 48 h of 310 µM. In addition, the pIC50 in series [7] was under 5.00; in series [3] (L. amazonensis, read-out: IC50 against promastigotes) it was 5.68 and 5.67; in series [2] (Leishmania amazonensis) it was 5.03; in series [5] (L. amazonensis, read-out: IC50 against axenic amastigotes) it was 6.05.
`CC(C)(C)OC(=O)c1c(N)sc2c1CCN(C(=O)OC(C)(C)C)C2` [Compound 22] yielded a CC50 at 48 h in series [6] of 195 µM. The pIC50 in series [7] is 5.08; in series [2] (Leishmania amazonensis) it was 5.19.
For `CC1CCc2c(sc(/N=C/c3c[nH]c4ccc(Br)cc34)c2C#N)C1` (stereo not shown) [Me-6CN83], the pIC50 in series [3] (setting [9]) is 5.00; in series [5] (setting [10]), 5.06. Also, the CC50 in series [4] is over 100 µM.
As a reminder, the pEC50 is the negative decadic logarithm of the EC50, by convention in mol/L. Regarding `N#Cc1c(/N=C/c2c[nH]c3ccc(Br)cc23)sc2c1CCCC2` [SB-83], the pIC50 in series [3] (setting [9]) was 5.48 and 5.47; in series [5] (setting [11]), 4.73. The negative-log EC50 (pEC50) in series [5] (L. amazonensis amastigotes) was 4.73. Further, the “paw lesion size and parasite load in the reservoirs” value in series [8] is “more effective than meglumine antimoniate”.
For `N#Cc1c(/N=C/c2c[nH]c3ccc(Br)cc23)sc2c1CCCCC2` [SB-200], the values for the pIC50 in series [3] (setting [9]) and in series [5] (setting [11]) were 5.44 and 4.70, respectively. Also, in series [4], the CC50 is 32 µM. In addition, the negative logarithm of the EC50 (pEC50) in series [5] (L. amazonensis amastigotes) was 4.70.
